Patent US20220125771A1, “S[…], ANALOGUES THEREOF, AND METHODS USING SAME” (priority 2019, published 2022)

These compounds were tested on HBsAg in HepG2.2.15 cells (assay: HBsAg Assay: inhibition of HBsAg in HepG2.2.15 cells (CLIA immunoassay of supernatant)). Settings: Hepatitis B virus, HepG2.2.15, 144 h, read-out: sAg EC50, μM, HepG2.2.15 cells; supernatant collected at day 6 after exposure of compounds; final DMSO 0.5%.
Format: cell-based, hepatitis B virus
Procedure: Inhibition of HBsAg was determined in HepG2.2.15 cells. Cells were maintained in culture medium containing 10% fetal calf serum, […], Glutamine, penicillin/streptomycin. Cells were seeded in 96-well collagen-coated plate at a density of 30,000 cells/well. Serially diluted compounds were added to cells next day at the final DMSO concentration of 0.5%. Cells were incubated with compounds for 2-3 days, after which medium was removed. Fresh medium containing compounds was added to cells for additional 3-4 days. At day 6 after exposure of compounds, supernatant was collected, the HBsAg immunoassay (microplate-based chemiluminescence immunoassay kits, CLIA, Autobio Diagnosics Co., Zhengzhou, China, Catalog #CL0310-2) was used to determine the level of HBsAg according to manufactory instruction. Dose-response curves were generated and the EC50 value (effective concentrations that achieved 50% inhibitory effect) were determined using XLfit software. In addition, cells were seeded at a density of 5,000 cells/well for determination of cell viability in the presence and absence of compounds by using CellTiter-Glo reagent (Promega). Tables 1-3 show EC50 values obtained by the HBsAg assay for selected compounds.
`CC(C)(C)C1Cn2c(cc3c(OC(F)F)cccc32)-c2[nH]c(=O)c(C(=O)O)c(O)c21` (centres unmarked) [Example 1, 5-(tert-Butyl)-11-(difluoromethoxy)-4-hydroxy-2-oxo-1,2,5,6-tetrahydroindolo[1,2-h][1,7]naphthyridine-3-carboxylic Acid] showed an EC50 of 0.009 µM.
Work on `COc1cccc2c1cc1n2CC(C(C)(C)C)c2c-1[nH]c(=O)c(C(=O)O)c2O` (centres unmarked) [Example 4, 5-(tert-Butyl)-4-hydroxy-11-methoxy-2-oxo-1,2,5,6-tetrahydroindolo[1,2-h][1,7]naphthyridine-3-carboxylic Acid] yielded an EC50 of 0.13 µM.
Compound `CCOc1cccc2c1cc1n2CC(C(C)(C)C)c2c-1[nH]c(=O)c(C(=O)O)c2O` (centres unmarked) [Example 5, 5-(tert-Butyl)-11-ethoxy-4-hydroxy-2-oxo-1,2,5,6-tetrahydroindolo[1,2-h]naphthyridine-3-carboxylic Acid] has an EC50 of 0.13 µM.
With `COCCOc1cccc2c1cc1n2CC(C(C)(C)C)c2c-1[nH]c(=O)c(C(=O)O)c2O` (centres unmarked) [Example 6, 5-(tert-Butyl)-4-hydroxy-11-(2-methoxyethoxy)-2-oxo-1,2,5,6-tetrahydroindolo[1,2-h][1,7] naphthyridine-3-carboxylic Acid] the EC50 was 0.76 µM.
`CC(C)(C)C1Cc2c(cc(OC(F)F)c3c2CCCN3)-c2[nH]c(=O)c(C(=O)O)c(O)c21` (centres unmarked) [Example 9, 6-(tert-Butyl)-12-(difluoromethoxy)-7-hydroxy-9-oxo-1,2,3,4,5,6,9,10-octahydroquinolino[7,8-f]quinoline-8-carboxylic Acid] gave an EC50 of 0.011 µM.
`COc1cccc2c1nc1n2CC(C(C)(C)C)c2c-1[nH]c(=O)c(C(=O)O)c2O` (centres unmarked) [Example 24, 5-(tert-Butyl)-4-hydroxy-11-methoxy-2-oxo-1,2,5,6-tetrahydrobenzo[4,5]imidazo[1,2-h][1,7]naphthyridine-3-carboxylic Acid] showed an EC50 of 0.02 µM.
For `CC(C)(C)C1Cn2c(nc3c(OC(F)F)cccc32)-c2[nH]c(=O)c(C(=O)O)c(O)c21` (centres unmarked) [Example 25, 5-(tert-Butyl)-11-(difluoromethoxy)-4-hydroxy-2-oxo-1,2,5,6-tetrahydrobenzo[4,5]imidazo[1,2-h][1,7]naphthyridine-3-carboxylic Acid], the EC50 was 0.004 µM.
Work on `CC(C)(C)C1Cn2c(nc3c(OC(F)F)cccc32)-c2[nH]c(=O)c(C(=O)O)cc21` (centres unmarked) [Example 26, 5-(tert-Butyl)-11-(difluoromethoxy)-2-oxo-1,2,5,6-tetrahydrobenzo[4,5]imidazo[1,2-h][1,7]naphthyridine-3-carboxylic Acid] yielded an EC50 of 0.057 µM.
Compound `CC(C)(C)C1Cc2c(cc(OC(F)F)c3ncccc23)-c2[nH]c(=O)c(C(=O)O)c(O)c21` (centres unmarked) [Example 29, 6-(tert-Butyl)-12-(difluoromethoxy)-7-hydroxy-9-oxo-5,6,9,10-tetrahydroquinolino[7,8-f]quinoline-8-carboxylic Acid] has an EC50 of 0.001 µM.
In the case of `COCCCN1CCCc2c3c(cc(OC(F)F)c21)-c1[nH]c(=O)c(C(=O)O)cc1C(C(C)(C)C)C3` (centres unmarked) [Example 30, 6-(tert-Butyl)-12-(difluoromethoxy)-1-(3-methoxypropyl)-9-oxo-1,2,3,4,5,6,9,10-octahydroquinolino[7,8-f]quinoline-8-carboxylic Acid], the EC50 is reported as 0.2 µM.
`CC(=O)N1CCCc2c3c(cc(OC(F)F)c21)-c1[nH]c(=O)c(C(=O)O)cc1C(C(C)(C)C)C3` (centres unmarked) [Example 31, 1-Acetyl-6-(tert-butyl)-12-(difluoromethoxy)-9-oxo-1,2,3,4,5,6,9,10-octahydroquinolino[7,8-f]quinoline-8-carboxylic Acid] gave an EC50 of 0.05 µM.
`CCN1CCCc2c3c(cc(OC(F)F)c21)-c1[nH]c(=O)c(C(=O)O)cc1C(C(C)(C)C)C3` (centres unmarked) [Example 34, 6-(tert-Butyl)-12-(difluoromethoxy)-1-ethyl-9-oxo-1,2,3,4,5,6,9,10-octahydroquinolino[7,8-f]quinoline-8-carboxylic Acid] showed an EC50 of 0.012 µM.
For `COc1nc2c(c3ccccc13)CC(C(C)(C)C)c1cc(C(=O)O)c(=O)n(C)c1-2` (centres unmarked) [Example 43, 12-(tert-Butyl)-6-methoxy-4-methyl-3-oxo-3,4,11,12-tetrahydrobenzo[c][1,10]phenanthroline-2-carboxylic Acid], the EC50 was 0.023 µM.
`COc1c(C(=O)O)c(=O)c2c(n1C)-c1cc(OC(F)F)c3ncccc3c1CC2C(C)(C)C` (centres unmarked) [Example 46, 6-(tert-Butyl)-12-(difluoromethoxy)-9-methoxy-10-methyl-7-oxo-5,6,7,10-tetrahydroquinolino[7,8-f]quinoline-8-carboxylic Acid] was tested, and the EC50 was 0.3 µM.
`COc1[nH]c2c(c(=O)c1C(=O)O)C(C(C)(C)C)Cc1c-2cc(OC(F)F)c2ncccc12` (centres unmarked) [Example 47, 6-(tert-butyl)-12-(difluoromethoxy)-9-methoxy-7-oxo-5,6,7,10-tetrahydroquinolino[7,8-f]quinoline-8-carboxylic Acid] gave an EC50 of 0.14 µM.

Same assay, conditions: read-out: sAg EC50; HepG2.2.15 cells; supernatant collected at day 6 after exposure of compounds; final DMSO 0.5%
With `CN1CCCc2c3c(cc(OC(F)F)c21)-c1[nH]c(=O)c(C(=O)O)cc1C(C(C)(C)C)C3` (single isomer, unassigned) [Example 33, 6-(tert-Butyl)-12-(difluoromethoxy)-1-methyl-9-oxo-1,2,3,4,5,6,9,10-octahydroquinolino[7,8-f]quinoline-8-carboxylic Acid] the EC50 was 0.3 µM.
Compound `COc1cc2c(c3cccnc13)CC(C(C)(C)C)c1cc(C(=O)O)c(=O)[nH]c1-2` (single isomer, unassigned) [Example 35, 6-(tert-Butyl)-12-methoxy-9-oxo-5,6,9,10-tetrahydroquinolino[7,8-f]quinoline-8-carboxylic Acid] has an EC50 of 0.027 µM.
For `COc1cc2c(c3cccnc13)CC(C(C)(C)C)c1cc(C(=O)O)c(=O)[nH]c1-2` (single isomer, unassigned) [Example 36, 6-(tert-Butyl)-12-methoxy-9-oxo-5,6,9,10-tetrahydroquinolino[7,8-f]quinoline-8-carboxylic Acid], the EC50 was 5.2 µM.
`CC(C)(C)C1Cc2c(cc(OC(F)F)c3ncccc23)-c2[nH]c(=O)c(C(=O)O)cc21` (single isomer, unassigned) [Example 37, 6-(tert-Butyl)-12-(difluoromethoxy)-9-oxo-5,6,9,10-tetrahydroquinolino[7,8-f]quinoline-8-carboxylic Acid] gave an EC50 of 0.003 µM.
`CC(C)(C)C1Cc2c(cc(OC(F)F)c3ncccc23)-c2[nH]c(=O)c(C(=O)O)cc21` (single isomer, unassigned) [Example 38, 6-(tert-butyl)-12-(difluoromethoxy)-9-oxo-5,6,9,10-tetrahydroquinolino[7,8-f]quinoline-8-carboxylic Acid] gave an EC50 of 3 µM.
Work on `Cn1c2c(cc(C(=O)O)c1=O)C(C(C)(C)C)Cc1c-2cc(OC(F)F)c2ncccc12` (single isomer, unassigned) [Example 39, 6-(tert-Butyl)-12-(difluoromethoxy)-10-methyl-9-oxo-5,6,9,10-tetrahydroquinolino[7,8-f]quinoline-8-carboxylic Acid] yielded an EC50 of 10 µM.
With `Cn1c2c(cc(C(=O)O)c1=O)C(C(C)(C)C)Cc1c-2cc(OC(F)F)c2ncccc12` (single isomer, unassigned) [Example 40, 6-(tert-Butyl)-12-(difluoromethoxy)-10-methyl-9-oxo-5,6,9,10-tetrahydroquinolino[7,8-f]quinoline-8-carboxylic Acid] the EC50 was 0.2 µM.
For `COc1nc2c(c3ccccc13)CC(C(C)(C)C)c1cc(C(=O)O)c(=O)[nH]c1-2` (single isomer, unassigned) [Example 41, 12-(tert-Butyl)-6-methoxy-3-oxo-3,4,11,12-tetrahydrobenzo[c][1,10]phenanthroline-2-carboxylic Acid], the EC50 was 0.001 µM.
`COc1nc2c(c3ccccc13)CC(C(C)(C)C)c1cc(C(=O)O)c(=O)[nH]c1-2` (single isomer, unassigned) [Example 42, 12-(tert-Butyl)-6-methoxy-3-oxo-3,4,11,12-tetrahydrobenzo[c][1,10]phenanthroline-2-carboxylic Acid] gave an EC50 of 0.075 µM.
`Cn1c2c(cc(C(=O)O)c1=O)C(C(C)(C)C)Cc1c-2nc(Cl)c2ccccc12` (single isomer, unassigned) [Example 44, 12-(tert-Butyl)-6-chloro-4-methyl-3-oxo-3,4,11,12-tetrahydrobenzo[c][1,10]phenanthroline-2-carboxylic Acid] showed an EC50 of 0.009 µM.
For `Cn1c2c(cc(C(=O)O)c1=O)C(C(C)(C)C)Cc1c-2nc(Cl)c2ccccc12` (single isomer, unassigned) [Example 45, 12-(tert-Butyl)-6-chloro-4-methyl-3-oxo-3,4,11,12-tetrahydrobenzo[c][1,10]phenanthroline-2-carboxylic Acid], the EC50 was 1 µM.
